Target: T1, PRMT5/MEP50 (Homo sapiens, UniProt O14744)
T1 construct: Expressed full-length human Flag-PRMT5/6His-MeP50 protein complex was purified; made in house; host or cells: Spodoptera frugiperda (SF9) insect cells, baculovirus (pDEST8)
Assay: PRMT5 Biochemical Assay (PRMT5/MEP50 enzyme assay on peptide substrate, 3H-SAM Flashplate)
Conditions: PRMT5 biochemical assay, Table C-2; read-out: Biochemical IC50
Description: S-adenosylmethionine (SAM), S-adenosylhomocysteine (SAH), bicine, KCl, Tween20, dimethylsulfoxide (DMSO), bovine skin gelatin (BSG), and Tris(2-carboxyethyl)phosphine hydrochloride solution (TCEP) were purchased from Sigma-Aldrich at the highest level of purity possible. ^3H-SAM was purchase from American Radiolabeled Chemicals with a specific activity of 80 Ci/mmol 384-well streptavidin Flashplates were purchased from PerkinElmer.
Peptide representative of human histone H4 residues 1-15 was synthesized with a C-terminal linker-affinity tag motif and a C-terminal amide cap by 21st Century Biochemicals. […] The sequence was Ac-[…][K-Biot]-amide (SEQ ID NO.:3).
Full-length human MEP50 (NM_024102) clone was amplified from a human testis cDNA library incorporating a 5′ sequence encoding a 6-histidine tag (MHHHHHH) (SEQ ID NO.:5) fused directly to Arg 2 of MEP50. The amplified genes were sublconed into pENTR/D/TEV (Life Technologies) and subsequently transferred by Gateway™ attL×attR recombination to pDEST8 baculvirus expression vector (Life Technologies).
Recombinant baculovirus and Baculovirus-Infected Insect Cells (BIIC) were generated according to Bac-to-Bac kit instructions (Life Technologies) and Wasilko, 2006, respectively. Protein over-expression was accomplished by infecting exponentially growing Spodoptera frugiperda (SF9) cell culture at 1.2×10^6 cell/ml with a 5000 fold dilution of BIIC stock. Infections were carried out at 27° C. for 72 hours, harvested by centrifugation, and stored at −80° C. for purification.
Flag-PRMT5/6His-MeP50 was eluted with 300 mM Imidazole in the same buffer. […] Reference: Wasilko, D. J. and S. E. Lee: “TIPS: titerless infected-cells preservation and scale-up” Bioprocess J., 5 (2006), pp. 29-32.
General Procedure for PRMT5/MEP50 Enzyme Assays on Peptide Substrates.
The assays were all performed in a buffer consisting of 20 mM Bicine (pH=7.6), 1 mM TCEP, 0.005% BSG, and 0.002% Tween20, prepared on the day of use. Compounds in 100% DMSO (1 ul) were spotted into a polypropylene 384-well V-bottom plates (Greiner) using a Platemate Plus outfitted with a 384-channel head (Thermo Scientific). DMSO (1 ul) was added to Columns 11, 12, 23, 24, rows A-H for the maximum signal control and 1 ul of SAH, a known product and inhibitor of PRMT5/MEP50, was added to columns 11, 12, 23, 24, rows I-P for the minimum signal control. A cocktail (40 ul) containing the PRMT5/MEP50 enzyme and the peptide was added by Multidrop Combi (Thermo-Fisher). The compounds were allowed to incubate with PRMT5/MEP50 for 30 min at 25 degrees Celsius, then a cocktail (10 ul) containing ^3H-SAM was added to initiate the reaction (final volume=51 ul). The final concentrations of the components were as follows: PRMT5/MEP50 was 4 nM, ^3H-SAM was 75 nM, peptide was 40 nM, SAH in the minimum signal control wells was 100 uM, and the DMSO concentration was 1%. The assays were stopped by the addition of non-radioactive SAM (10 ul) to a final concentration of 600 uM, which dilutes the ^3H-SAM to a level where its incorporation into the peptide substrate is no longer detectable. 50 ul of the reaction in the 384-well polypropylene plate was then transferred to a 384-well Flashplate and the biotinylated peptides were allowed to bind to the streptavidin surface for at least 1 hour before being washed three times with 0.1% Tween20 in a Biotek ELx405 plate washer. The plates were then read in a PerkinElmer TopCount plate reader to measure the quantity of ^3H-labeled peptide bound to the Flashplate surface, measured as disintegrations per minute (dpm) or alternatively, referred to as counts per minute (cpm).
where dpm=disintegrations per minute, cmpd=signal in assay well, and min and max are the respective minimum and maximum signal controls.
where top and bottom are the normally allowed to float, but may be fixed at 100 or 0 respectively in a 3-parameter fit.

T1 sequence (O14744 with tags, fused parts or gaps): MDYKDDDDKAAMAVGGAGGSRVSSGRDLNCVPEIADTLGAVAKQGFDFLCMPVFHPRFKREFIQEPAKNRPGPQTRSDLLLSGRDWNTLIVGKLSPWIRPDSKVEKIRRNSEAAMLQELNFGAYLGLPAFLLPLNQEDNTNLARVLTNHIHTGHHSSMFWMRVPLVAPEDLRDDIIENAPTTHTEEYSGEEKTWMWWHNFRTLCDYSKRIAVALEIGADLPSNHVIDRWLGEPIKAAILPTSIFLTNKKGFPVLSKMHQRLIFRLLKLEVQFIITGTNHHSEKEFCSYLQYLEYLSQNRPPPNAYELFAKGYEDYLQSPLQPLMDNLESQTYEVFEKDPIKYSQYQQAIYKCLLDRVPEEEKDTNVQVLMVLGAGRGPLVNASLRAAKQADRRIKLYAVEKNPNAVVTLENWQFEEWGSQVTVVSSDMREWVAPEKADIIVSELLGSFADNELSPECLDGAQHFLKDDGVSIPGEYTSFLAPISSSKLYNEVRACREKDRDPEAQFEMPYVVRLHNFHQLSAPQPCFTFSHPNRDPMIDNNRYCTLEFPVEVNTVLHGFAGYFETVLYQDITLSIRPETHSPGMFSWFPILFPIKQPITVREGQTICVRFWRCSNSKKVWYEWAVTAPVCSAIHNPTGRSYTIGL
T1 sequence (Q9BQA1 with tags, fused parts or gaps partner limits assumed): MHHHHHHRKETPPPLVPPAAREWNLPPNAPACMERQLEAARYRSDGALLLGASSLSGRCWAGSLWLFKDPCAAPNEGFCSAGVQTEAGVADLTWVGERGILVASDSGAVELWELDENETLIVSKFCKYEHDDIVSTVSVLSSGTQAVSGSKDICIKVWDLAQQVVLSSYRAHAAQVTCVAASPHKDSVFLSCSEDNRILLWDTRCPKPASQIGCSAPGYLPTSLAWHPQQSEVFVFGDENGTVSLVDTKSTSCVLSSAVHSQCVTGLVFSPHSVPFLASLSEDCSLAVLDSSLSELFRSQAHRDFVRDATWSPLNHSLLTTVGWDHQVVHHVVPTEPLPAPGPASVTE

Compound	IC50 [nM]
O=C1CN(c2cccc(N3CCOCC3)c2)CCN1CC(O)CN1CCc2ccccc2C1 (centres unmarked) [Compound C12]	< 100
O=C1CN(c2ccccc2Cl)CCN1CC(O)CN1CCc2ccccc2C1 (centres unmarked) [Compound C9]	101 to 1000
O=C1CN(c2cncc(N3CCOCC3)c2)CCN1CC(O)CN1CCc2ccccc2C1 (centres unmarked) [Compound C8]	< 100
CN(C)c1ccc(N2CCN(C[C@H](O)CN3CCc4ccccc4C3)C(=O)C2)cc1 [Compound C30]	1000 to 10000
CS(=O)(=O)N1CCN(CC(O)CN2CCc3ccccc3C2)C(=O)C1 (centres unmarked) [Compound C22]	1000 to 10000
Cc1cccc(N2CCN(CC(O)CN3CCc4ccccc4C3)C(=O)C2)c1 (centres unmarked) [Compound C3]	10000 to 50000
O=C1CN(C2CCOCC2)CCN1CC(O)CN1CCc2ccccc2C1 (centres unmarked) [Compound C23]	1000 to 10000
O=C1CC(c2ccccc2)CCN1C[C@@H](O)CN1CCc2ccccc2C1 (some centres unmarked) [Compound C17]	1000 to 10000

Same assay, conditions: Table A-2; PRMT5/MEP50 4 nM, 3H-SAM 75 nM, peptide 40 nM; read-out: Biochemical IC50

Compound	IC50 [nM]
O=C(COc1cccc2[nH]c(=O)cnc12)NCC(O)CN1CCc2ccccc2C1 (centres unmarked) [Compound A125]	1000 to 10000
CC(=O)Nc1cncc(OCC(=O)NCC(O)CN2CCc3ccccc3C2)c1 (centres unmarked) [Compound A148]	> 10000
O=C(COCc1cccnc1)NCC(O)CN1CCc2ccccc2C1 (centres unmarked) [Compound A152]	1000 to 10000
O=C(Cc1ccccc1)NC[C@@H](O)CN1CCc2ccccc2C1 [Compound A57]	10000 to 50000
CN(CC(O)CN1CCc2ccccc2C1)C(=O)COc1ccccc1 (centres unmarked) [Compound A5]	10000 to 50000
CC(C)(C)OC(=O)Nc1ccccc1OCC(=O)NCC(O)CN1CCc2ccccc2C1 (centres unmarked) [Compound A141]	1000 to 10000
CN(CC(O)CN1CCc2ccccc2C1)C(=O)CCc1ccccc1 (centres unmarked) [Compound A3]	1000 to 10000
CN1CCC(c2ccccc2OCC(=O)NCC(O)CN2CCc3ccccc3C2)C1 (centres unmarked) [Compound A136]	1000 to 10000

Same assay, conditions: Table B-2; PRMT5/MEP50 4 nM, 3H-SAM 75 nM, peptide 40 nM; read-out: Biochemical IC50

Compound	IC50 [nM]
CN(C)CCOc1cccc(C(=O)NCC(O)CN2CCc3ccccc3C2)c1 (centres unmarked) [Compound B28.]	< 100
O=C(NCC(O)CN1CCc2ccccc2C1)c1cccc(CN2CCOCC2)c1 (centres unmarked) [Compound B51.]	101 to 1000
O=C(NCC(O)CN1CCc2ccccc2C1)c1ccc(-c2ccccn2)cc1 (centres unmarked) [Compound B13.]	< 100
CN1CCC(c2cccc(C(=O)NCC(O)CN3CCc4ccccc4C3)c2)C1 (centres unmarked) [Compound B38.]	< 100
O=C(NCC(O)CN1CCc2ccccc2C1)c1cccc(-c2cc[nH]n2)c1 (centres unmarked) [Compound B10.]	< 100
CS(=O)(=O)Nc1ccccc1C(=O)NCC(O)CN1CCc2ccccc2C1 (centres unmarked) [Compound B27.]	1000 to 10000
CN1CCN(Cc2cccc(C(=O)NCC(O)CN3CCc4ccccc4C3)c2)CC1 (centres unmarked) [Compound B30.]	< 100
NC(=O)c1cccc(C(=O)NCC(O)CN2CCc3ccccc3C2)c1 (centres unmarked) [Compound B25.]	101 to 1000
O=C(NC[C@@H](O)CN1CCc2ccccc2C1)c1cccc(-c2ccccn2)c1 [Compound B19.]	< 100
Cc1c(NC2CCOCC2)cccc1C(=O)NCC(O)CN1CCc2ccccc2C1 (centres unmarked) [Compound B40.]	< 100
O=C(NC[C@H](O)CN1CCc2ccccc2C1)c1ccccc1 [Compound B3.]	< 100
O=C(NCC(O)CN1CCc2ccccc2C1)c1ccccc1-c1ccccn1 (centres unmarked) [Compound B12.]	101 to 1000
NS(=O)(=O)c1cccc(C(=O)NCC(O)CN2CCc3ccccc3C2)c1 (centres unmarked) [Compound B32.]	101 to 1000
O=C(NC[C@@H](O)CN1CCc2ccccc2C1)Oc1ccccc1 [Compound B11.]	< 100
O=C(NCC(O)CN1CCc2ccccc2C1)c1cccc(NC2CCOCC2)c1 (centres unmarked) [Compound B16.]	< 100
CS(=O)(=O)Nc1cccc(C(=O)NCC(O)CN2CCc3ccccc3C2)c1 (centres unmarked) [Compound B24.]	< 100
O=C(NCC(O)CN1CCc2ccccc2C1)c1cccc(NC2CCOC2)c1 (centres unmarked) [Compound B45.]	< 100

Same assay, conditions: Table D-2; read-out: Biochemical IC50

Compound	IC50 [nM]
Cn1cnc2ccc(-c3cccc(OCC(O)CN4CCc5ccccc5C4(C)C)c3)cc21 (centres unmarked) [Compound D211]	1000 to 10000
OC(COc1cccc(CNC2CCOCC2)c1)CN1CCc2ccccc2C1 (centres unmarked) [Compound D5]	101 to 1000
Cn1cc(-c2cccc(OCC(O)CN3CCc4ccccc4C3)c2)cn1 (centres unmarked) [Compound D44]	1000 to 10000
COc1ncc(-c2cccc(OCC(O)CN3CCc4ccccc4C3)c2)cn1 (centres unmarked) [Compound D153]	1000 to 10000
CC1Cc2ccccc2CN1CC(O)COc1cccc(-c2ccc3ncn(C)c3c2)c1 (centres unmarked) [Compound D122]	1000 to 10000
Cn1cnc2ccc(-c3cccc(OCC(O)CN4CCc5ccccc5C4COc4ccccc4)c3)cc21 (centres unmarked) [Compound D178]	> 40000
OC(COc1cccc(-c2ccc(F)cc2)c1)CN1CCc2ccccc2C1 (centres unmarked) [Compound D77]	1000 to 10000
OC(COc1cccc(-c2cccc(C(F)(F)F)c2)c1)CN1CCc2ccccc2C1 (centres unmarked) [Compound D87]	1000 to 10000
COc1ccc(Cn2nccc2-c2ccc(OC[C@@H](O)CN3CCc4ccccc4C3)cc2)cc1 [Compound D38]	> 40000
OC(COC1CCN(Cc2ccccc2)C1)CN1CCc2ccccc2C1 (centres unmarked) [Compound D35]	1000 to 10000
OC(CCc1cccc(CNC2CCCC2)c1)CN1CCc2ccccc2C1 (centres unmarked) [Compound D36]	10000 to 40000
Cn1cnc2ccc(N3CCCC(OCC(O)CN4CCc5ccccc5C4)C3)cc21 (centres unmarked) [Compound D66]	101 to 1000
OC(COc1cccc(-c2ccc(Cl)cc2)c1)CN1CCc2ccccc2C1 (centres unmarked) [Compound D69]	1000 to 10000
OC(COc1cccc(-c2cncc(F)c2)c1)CN1CCc2ccccc2C1 (centres unmarked) [Compound D76]	1000 to 10000
O=C(NC1CCOCC1)c1cccc(NCC(O)CN2CCc3ccccc3C2)c1 (centres unmarked) [Compound D79]	10000 to 40000
O=C(Nc1cc[nH]n1)c1cccc(OCC(O)CN2CCc3ccccc3C2)c1 (centres unmarked) [Compound D274]	1000 to 10000
CN(C(=O)c1cnco1)c1cccc(OCC(O)CN2CCc3ccccc3C2)c1 (centres unmarked) [Compound D196]	1000 to 10000
Cn1cnc2nc(-c3cccc(OCC(O)CN4CCc5ccccc5C4)c3)ncc21 (centres unmarked) [Compound D165]	1000 to 10000
OC(COc1cccc(CNC2CCNCC2)c1)CN1CCc2ccccc2C1 (centres unmarked) [Compound D13]	1000 to 10000
CN(C(=O)c1cocn1)c1cccc(OCC(O)CN2CCc3ccccc3C2)c1 (centres unmarked) [Compound D198]	10000 to 40000
OC(COc1cccc(-c2cnccn2)c1)CN1CCc2ccccc2C1 (centres unmarked) [Compound D155]	1000 to 10000
OC(COCc1ccc(CN2CCOCC2)cc1)CN1CCc2ccccc2C1 (centres unmarked) [Compound D46]	1000 to 10000
CCOC(=O)C1c2ccccc2CCN1CC(O)COc1cccc(-c2ccc3ncn(C)c3c2)c1 (centres unmarked) [Compound D193]	> 40000
OC(COc1ccc(OCc2ccccc2)cc1)CN1CCc2ccccc2C1 (centres unmarked) [Compound D19]	1000 to 10000
Cn1cnc2ccc(-c3cccc(OCC(O)CN4Cc5ccccc5C(F)(F)C4)c3)cc21 (centres unmarked) [Compound D277]	> 10000
OC(COC1CCCN(c2ccccc2)C1)CN1CCc2ccccc2C1 (centres unmarked) [Compound D2]	1000 to 10000

Same assay, conditions: Table E-2; read-out: Biochemical IC50

Compound	IC50 [nM]
CC(C)(C)OC(=O)Nc1cccc(C(=O)NCC(O)CN2Cc3ccccc3C2)c1 (centres unmarked) [Compound E11.]	101 to 1000
Cn1cnc2ccc(-c3cccc(OCC(O)CN4Cc5ccccc5C4)c3)cc21 (centres unmarked) [Compound E9.]	1000 to 10000
C[C@H](Oc1cccc2cccnc12)C(=O)NC[C@@H](O)CN1Cc2ccccc2C1 [Compound E6.]	> 10000
